Patent US11766420B2 (priority 2015, dated 2023)

System: HEK293T cells
Conditions: human

COc1ncc(-c2ccc3nc(N)n(-c4ccc(N5CCOCC5)cc4)c3c2)cc1S(=O)(=O)Nc1ccccc1F [A1, 5-(2-amino-1-(4-(4-morpholinyl)phenyl)-1H-benzimidazol-6-yl)-N-(2-fluorophenyl)-2-methoxy-3-pyridinesulfonamide]
Concentration that killed most of the cells (MTT): ≥ 250 nM
